Converted amounts (≈) assume the structure as drawn. Numbered stars: 1 amine (or outer) side, 2 acyl side, 3 side chain; on linkers, the order of the positions; unused ones are H or OH. Square brackets hold non-standard residues; d marks the D form. Peptide text beside a SMILES is read from it. MeBmt = C/C=C/C[C@@H](C)[C@@H](O)[C@H](NC)C(=O)O; NMeLeu(4-OH) = CN[C@@H](CC(C)(C)O)C(=O)O; X2 = CN(C(Sc1ccccn1)C(=O)[*:2])[*:1]; NMeL = CN[C@@H](CC(C)C)C(=O)O; NMeV = CN[C@H](C(=O)O)C(C)C; Abu = CC[C@H](N)C(=O)O
How the values were obtained:
[1] = Antiinflammatory activity, adjuvent arthritis test (Pearson); assay type: in vivo; settings: oral, solutions in olive oil and tween 80
Method: The antiinflammatory activity of test compounds was determined by the adjuvent arthritis test described by Pearson, “Arthr. Rheum”, 1959, Vol. 2., 440. Test compounds were administered orally as solutions in olive oil and tween 80.

cyclophilin = cyclophilin (Homo sapiens, UniProt P62937); test: Test for cyclophilin binding (Fliri); settings: ratio to cyclosporin A
cyclophilin, sequence (P62937 whole entry): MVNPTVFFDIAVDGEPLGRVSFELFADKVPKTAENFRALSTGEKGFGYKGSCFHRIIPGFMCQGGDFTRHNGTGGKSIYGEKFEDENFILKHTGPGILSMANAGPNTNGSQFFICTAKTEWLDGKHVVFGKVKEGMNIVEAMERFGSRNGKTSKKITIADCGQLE
Description: To measure the affinity and inhibition of test compounds for cyclophilin, the test described by H. Fliri in “Antibiotics and Antiviral compounds”, 1993, Verlag Chemie, K.Krohn, H. A. Kirst, and H. Maag, eds., p 229-240 was used.

HIV = assay type: cell-based
Description: The inhibitory effect of test compounds on the HIV-induced cytopathic effect on the MT4 T cell line as described by R. Pauwels in J. Virol. Methods, 1988, Vol. 20, pp 309-321 was used.

Relative IC50, i.e. IC50 (cyclosporin A)/IC50 (test compound) (cyclophilin)	IC50 (HIV)	Structure (SMILES)	ED50, dose effective in reducing the joint swelling by 50% [1]
0.2	1 µg/mL (≈ 0.762 µM)	C/C=C/C[C@@H](C)[C@@H](O)[C@H]1C(=O)N[C@@H](CC)C(=O)N(C)C(Sc2ccncc2)C(=O)N(C)[C@@H](CC(C)C)C(=O)N[C@@H](C(C)C)C(=O)N(C)[C@@H](CC(C)C)C(=O)N[C@@H](C)C(=O)N[C@H](C)C(=O)N(C)[C@@H](CC(C)C)C(=O)N(C)[C@@H](CC(C)C)C(=O)N(C)[C@@H](C(C)C)C(=O)N1C (stereo partly drawn) [Example 2, 3-(Pyridyl-4-thio)-cyclosporin A] (HELM PEPTIDE1{[C/C=C/C[C@@H](C)[C@@H](O)[C@@H](C(=O)[*:2])N(C)[*:1]].[Abu].[CN(C(Sc1ccncc1)C(=O)[*:2])[*:1]].[meL].V.[meL].A.[dA].[meL].[meL].[meV]}$PEPTIDE1,PEPTIDE1,1:R1-11:R2$$$V2.0)	25 mg/kg
0.2	1 µg/mL (≈ 0.754 µM)	C/C=C/C[C@@H](C)[C@@H](O)[C@H]1C(=O)N[C@@H](C(C)C)C(=O)N(C)C(Sc2ccccn2)C(=O)N(C)[C@@H](CC(C)C)C(=O)N[C@@H](C(C)C)C(=O)N(C)[C@@H](CC(C)C)C(=O)N[C@@H](C)C(=O)N[C@H](C)C(=O)N(C)[C@@H](CC(C)C)C(=O)N(C)[C@@H](CC(C)C)C(=O)N(C)[C@@H](C(C)C)C(=O)N1C (stereo partly drawn) [Example 6, 3-(Pyridyl-2-thio)-2-valine-cyclosporin] (HELM PEPTIDE1{[C/C=C/C[C@@H](C)[C@@H](O)[C@@H](C(=O)[*:2])N(C)[*:1]].V.[CN(C(Sc1ccccn1)C(=O)[*:2])[*:1]].[meL].V.[meL].A.[dA].[meL].[meL].[meV]}$PEPTIDE1,PEPTIDE1,1:R1-11:R2$$$V2.0)	25 mg/kg
0.2	0.45 µg/mL (≈ 0.343 µM)	C/C=C/C[C@@H](C)[C@@H](O)[C@H]1C(=O)N[C@@H](CC)C(=O)N(C)C(Sc2ccccn2)C(=O)N(C)[C@@H](CC(C)C)C(=O)N[C@@H](C(C)C)C(=O)N(C)[C@@H](CC(C)C)C(=O)N[C@@H](C)C(=O)N[C@H](C)C(=O)N(C)[C@@H](CC(C)C)C(=O)N(C)[C@@H](CC(C)C)C(=O)N(C)[C@@H](C(C)C)C(=O)N1C (stereo partly drawn) [Example 1, 3-(Pyridyl-2-thio)-cyclosporin] (HELM PEPTIDE1{[C/C=C/C[C@@H](C)[C@@H](O)[C@@H](C(=O)[*:2])N(C)[*:1]].[Abu].[CN(C(Sc1ccccn1)C(=O)[*:2])[*:1]].[meL].V.[meL].A.[dA].[meL].[meL].[meV]}$PEPTIDE1,PEPTIDE1,1:R1-11:R2$$$V2.0)	25 mg/kg
0.2	1 µg/mL (≈ 0.753 µM)	C/C=C/C[C@@H](C)[C@@H](O)[C@H]1C(=O)N[C@@H](CC)C(=O)N(C)C(Sc2ccccn2)C(=O)N(C)[C@@H](CC(C)C)C(=O)N[C@@H](C(C)C)C(=O)N(C)[C@@H](CC(C)C)C(=O)N[C@@H](C)C(=O)N[C@H](CO)C(=O)N(C)[C@@H](CC(C)C)C(=O)N(C)[C@@H](CC(C)C)C(=O)N(C)[C@@H](C(C)C)C(=O)N1C (stereo partly drawn) [Example 7, 3-(Pyridyl-2-thio)-8-(D)-serine-cyclosporin] (HELM PEPTIDE1{[C/C=C/C[C@@H](C)[C@@H](O)[C@@H](C(=O)[*:2])N(C)[*:1]].[Abu].[CN(C(Sc1ccccn1)C(=O)[*:2])[*:1]].[meL].V.[meL].A.[dS].[meL].[meL].[meV]}$PEPTIDE1,PEPTIDE1,1:R1-11:R2$$$V2.0)	25 mg/kg

Continued, molecule first:

Structure (SMILES)	Relative IC50, i.e. IC50 (cyclosporin A)/IC50 (test compound) (cyclophilin)	IC50 (HIV)	ED50, dose effective in reducing the joint swelling by 50% [1]
C/C=C/C[C@@H](C)[C@@H](O)[C@H]1C(=O)N[C@@H](CCC)C(=O)N(C)C(Sc2ccccn2)C(=O)N(C)[C@@H](CC(C)C)C(=O)N[C@@H](C(C)C)C(=O)N(C)[C@@H](CC(C)C)C(=O)N[C@@H](C)C(=O)N[C@H](C)C(=O)N(C)[C@@H](CC(C)C)C(=O)N(C)[C@@H](CC(C)C)C(=O)N(C)[C@@H](C(C)C)C(=O)N1C (stereo partly drawn) [Example 5, 3-(Pyridyl-2-thio)-2-norvaline-cyclosporin] (HELM PEPTIDE1{[C/C=C/C[C@@H](C)[C@@H](O)[C@@H](C(=O)[*:2])N(C)[*:1]].[Nva].[CN(C(Sc1ccccn1)C(=O)[*:2])[*:1]].[meL].V.[meL].A.[dA].[meL].[meL].[meV]}$PEPTIDE1,PEPTIDE1,1:R1-11:R2$$$V2.0)	0.2	1 µg/mL (≈ 0.754 µM)	25 mg/kg
C/C=C/C[C@@H](C)[C@@H](O)[C@H]1C(=O)N[C@@H](CC)C(=O)N(C)C(Sc2ccccn2)C(=O)N(C)[C@@H](C(C)C)C(=O)N[C@@H](C(C)C)C(=O)N(C)[C@@H](CC(C)C)C(=O)N[C@@H](C)C(=O)N[C@H](C)C(=O)N(C)[C@@H](CC(C)C)C(=O)N(C)[C@@H](CC(C)C)C(=O)N(C)[C@@H](C(C)C)C(=O)N1C (stereo partly drawn) [Example 4, 3-(Pyridyl-2-thio)-4-methylvaline-cyclosporin] (HELM PEPTIDE1{[C/C=C/C[C@@H](C)[C@@H](O)[C@@H](C(=O)[*:2])N(C)[*:1]].[Abu].[CN(C(Sc1ccccn1)C(=O)[*:2])[*:1]].[meV].V.[meL].A.[dA].[meL].[meL].[meV]}$PEPTIDE1,PEPTIDE1,1:R1-11:R2$$$V2.0)	0.2	1 µg/mL (≈ 0.771 µM)	25 mg/kg
C/C=C/C[C@@H](C)[C@@H](OC(C)=O)[C@H]1C(=O)N[C@@H](CC)C(=O)N(C)C(OC(C)=O)C(=O)N(C)[C@@H](CC(C)C)C(=O)N[C@@H](C(C)C)C(=O)N(C)[C@@H](CC(C)C)C(=O)N[C@@H](C)C(=O)N[C@H](C)C(=O)N(C)[C@@H](CC(C)C)C(=O)N(C)[C@@H](CC(C)C)C(=O)N(C)[C@@H](C(C)C)C(=O)N1C (stereo partly drawn) [Example 12, 3′,3-Diacetoxy-cyclosporin]	1.5	0.15 µg/mL (≈ 0.115 µM)	15 mg/kg
C/C=C/C[C@@H](C)[C@@H](O)[C@H]1C(=O)N[C@@H](CC)C(=O)N(C)C(Sc2ccccc2)C(=O)N(C)[C@@H](CC(C)C)C(=O)N[C@@H](C(C)C)C(=O)N(C)[C@@H](CC(C)C)C(=O)N[C@@H](C)C(=O)N[C@H](C)C(=O)N(C)[C@@H](CC(C)C)C(=O)N(C)[C@@H](CC(C)C)C(=O)N(C)[C@@H](C(C)C)C(=O)N1C (stereo partly drawn) [Example 8, 3-(Phenylthio)-cyclosporin A] (HELM PEPTIDE1{[C/C=C/C[C@@H](C)[C@@H](O)[C@@H](C(=O)[*:2])N(C)[*:1]].[Abu].[CN(C(Sc1ccccc1)C(=O)[*:2])[*:1]].[meL].V.[meL].A.[dA].[meL].[meL].[meV]}$PEPTIDE1,PEPTIDE1,1:R1-11:R2$$$V2.0)	0.4	0.5 µg/mL (≈ 0.381 µM)	25 mg/kg
C/C=C/C[C@@H](C)[C@@H](O)[C@H]1C(=O)N[C@@H](CC)C(=O)N(C)C(Sc2ccccn2)C(=O)N(C)[C@@H](CC(C)(C)O)C(=O)N[C@@H](C(C)C)C(=O)N(C)[C@@H](CC(C)C)C(=O)N[C@@H](C)C(=O)N[C@H](C)C(=O)N(C)[C@@H](CC(C)C)C(=O)N(C)[C@@H](CC(C)C)C(=O)N(C)[C@@H](C(C)C)C(=O)N1C (stereo partly drawn) [Example 3, 3-(Pyridyl-2-thio)-4-(γ-hydroxy-methylleucine)-cyclosporin] (cyclo([MeBmt][Abu][X2][NMeLeu(4-OH)]V[NMeL]A[dA][NMeL][NMeL][NMeV]))	0.2	1 µg/mL (≈ 0.753 µM)	25 mg/kg

From US6583265B1, “Cyclosporins” (C-Chem AG, priority 1998, dated 2003)
